No end group written: not given here.
Key:
[1] = system: mice challenged intratracheally with a single dose bleomycin (BLM); assay: Acute BLM challenge model (intratracheal 0.08 U BLM), therapeutic regimen with CPP-DPs; type: in vivo, mouse; details: for collagen accumulation in lung / pulmonary IL-33 accumulation: end of 3 weeks, vs PBS-treated animals; for total body weight over time: intraperitoneal once a day from day 8 for 2 weeks, vs BLM-challenged, PBS-treated mice
Text: FIG. 5. Therapeutic effects of CPP-DPs in the acute BLM challenge model. A. Time course schematic of the acute BLM challenge model. […] Data in panels B and C were pooled data from separate 3 experiments.
To test the ability of these peptides to deplete the levels of IL-33 in vivo and to assess their ability to modulate the degree of pulmonary fibrosis, these peptides were synthesized, HPLC-purified, and tested in the therapeutic regimen in mice challenged intratracheally with a single dose bleomycin (BLM). In this acute BLM challenge mode, mice received intratracheal 0.08 U of BLM or an equal volume phosphate-buffered saline (PBS) control and allowed to respond to such injury for a week without any intervention. On day 8, intraperitoneal administrations of CPP-DPs once a day were started and continued for 2 weeks. In the end of the 3 weeks, mice have been euthanized, lungs extracted, and pulmonary levels of IL-33 and collagen measured.

[2] = system: Wild-type C57BL/6 mice challenged with BLM; assay: Acute BLM model in vivo (single intratracheal 0.075 U BLM), therapeutic regimen with Series 2 peptides; set-up: species or system mouse; details: for pulmonary levels of IL-33 (ELISA, lung homogenates) / total lung collagen (QuickZyme assay): 10 nmol/g intraperitoneal daily on days 5-13, day 14; for signs of toxicity (ruffled fur, hunched posture, reduced mobility, diarrhea, weight lost, tachypnea) / therapeutic effect against fibrosis: acute BLM injury model; for signs of toxicity (ruffled fur, hunched posture, reduced mobility, diarrhea, weight lost, tachypnea): in vivo; for therapeutic effect against fibrosis: therapeutic mode
Text: FIG. 2. Design of decoy peptides in Series 2 (A), the effects of peptides 2-5 and 2-10 on pulmonary levels of IL-33 (B, D), and collagen (C, D) proteins in the acute BLM model in vivo. In panels B and D, mean ±SD values are shown. […] Wild-type C57BL/6 mice were challenged with a single intratracheal instillation of 0.075 U of BLM or PBS vehicle, and the disease was allowed to evolve for 5 days. On days 5-13, mice received daily intraperitoneal injections of 10 nmol/g of peptides 2-5 or 2-10, or PBS vehicle. Mice were euthanized on day 14, and IL-33 levels measured by ELISA in lung homogenates, whereas total lung collagen was measured using QuickZyme assays.
(§1) We propose development of a new IL-33 attenuating therapy based on CPP-DP-based strategy. […] In each peptide 1-1 and 1-2, the CPP penetratin was N-terminally fused to the DP. The final sequences of peptides 1-1 and 1-2 were […] (SEQ ID NO:69) and ROIKIWFONRRMKWKKFRRETTKRPSLKTG (SEQ ID NO:70), respectively, with the CPP portion shown in italic and the DP portions underlined. Primary fibroblasts were electroporated with FLIL33-encoding and, separately, control non-coding vehicle (NULL) plasmids, and, after 24 h, the medium was replaced with added peptides 1-1 or 1-2. Based on our experience with CPP-DPs, initial concentrations of 20 μM and 40 μM were tested. After an additional 24 h, cells were lysed and the lysates were analyzed for the levels of IL-33 by ELISA. […] The most likely explanation for this effect is based on our previous experience of depleting IPOS with CRISPR-Cas9, AdV-shRNA, and siRNA technologies (Clerman et al., J Biol Chem. (2017). 292:21653-61: Kopach et al., J Biol Chem. (2014). 289:11829-43). We previously observed that a complete or nearly complete depletion of IPO5 using these methodologies quickly leads to cell death, whereas substantial yet incomplete depletion of IPO5 levels abrogates FLIL33 without affecting cell viability. We argue that peptide 1-1 is “too effective” in binding IPO5, thus competing for it not only with FLIL33 but also with other critical molecular partners, and ultimately impeding on cell survival. We then undertook a more rigorous, unbiased approach, based on the following considerations. As stated above in relation to Example 1, there are possible multiple other regions in the N-terminal portion of FLIL33 that control its stability, subcellular localization, secretion, maturation, and functional binding of intracellular molecular partners. Targeting by DPs needs to cover the entire N-terminal part of FLIL33 and be performed in a systematic fashion, and the data integrated with the observations in Examples 1 and 2. […] We began by designing Series 2 of overlapping DPs that together cover the entire N-terminus of FLIL33. In all cases, a different CPP (TAT) is fused on the N terminus, based on the possibility that it may decrease the peptide load per cell and thus limit toxicity. […] We then proceeded to test the capacity of this peptide to deplete the levels of IL-33 in vivo and to determine whether such depletion may be protective, in the therapeutic mode, against fibrosis in the acute BLM injury model. […] Thus, peptide 2-5 fused with TAT may be a promising therapeutic agent. However, this and other peptides in this series need to be considered in detail.

[3] = system: mice chronically challenged with BLM; assay: Chronic BLM challenge model (BLM intraperitoneally twice a week for 33 days), treatment with CPP-DPs; type: in vivo, mouse; details: for total body weight over time: intraperitoneal three times a week, started after 14 days of challenge
Text: FIG. 6. Therapeutic effects of CPP-DPs in the chronic BLM challenge model. A. Time course schematic of the chronic BLM challenge model. B. Time-dependent changes in total body weight (mean percent of initial body weight ±SD. Asterisks indicate higher (p<0.05) body weights in CPP-DP-treated compared to PBS control-treated mice. C. Individual collagen levels, μg per mg of wet lung tissue (left), and IL-33 levels, pg per mg of wet lung tissue (right), in lung homogenates from mice treated as indicated. Asterisks indicate lower (p<0.05) levels in BLM-challenged, PBS-treated control mice.
We then considered that such acute model of bleomycin injury, despite its universal use in this field of work, is well known to represent the chronic nature of human pulmonary fibrosis less accurately than the chronic model of systemic BLM delivery. In the chronic model, BLM is injected intraperitoneally twice a week for 33 days, with subsequent assessment of pulmonary changes (FIG. 6A). We challenged mice in this fashion, and, after 14 days such chronic challenge at which point the decline in their total body weight became obvious (FIG. 6B), initiated treatment with CPP-DP5, CPP-DP10, or PBS injected intraperitoneally three times a week (FIG. 6A). […] Of note, such therapy with CPP-DP5 was efficacious despite the continued challenge with repeated administration of BLM (FIG. 6A).

IL-33 = assay: Initial cell culture screening tests of Series 2 peptides for depletion of IL-33; type: cell-based; details: TAT-fused Series 2 peptide, most pronounced of the series
Text: We propose development of a new IL-33 attenuating therapy based on CPP-DP-based strategy. […] In each peptide 1-1 and 1-2, the CPP penetratin was N-terminally fused to the DP. The final sequences of peptides 1-1 and 1-2 were […] (SEQ ID NO:69) and ROIKIWFONRRMKWKKFRRETTKRPSLKTG (SEQ ID NO:70), respectively, with the CPP portion shown in italic and the DP portions underlined. Primary fibroblasts were electroporated with FLIL33-encoding and, separately, control non-coding vehicle (NULL) plasmids, and, after 24 h, the medium was replaced with added peptides 1-1 or 1-2. Based on our experience with CPP-DPs, initial concentrations of 20 μM and 40 μM were tested. After an additional 24 h, cells were lysed and the lysates were analyzed for the levels of IL-33 by ELISA. […] The most likely explanation for this effect is based on our previous experience of depleting IPOS with CRISPR-Cas9, AdV-shRNA, and siRNA technologies (Clerman et al., J Biol Chem. (2017). 292:21653-61: Kopach et al., J Biol Chem. (2014). 289:11829-43). […]
Studies in human and mouse cell cultures. […] CPP-DPs and control CPPs will be added to cell culture, and the levels of the overexpressed proteins assessed in cell lysates by ELISA as well as by WB for the HA-tag, which is attached to the C-terminus of all of these proteins.

Primary fibroblasts = assay: Cell viability / toxicity of peptides in FLIL33-overexpressing or NULL-transfected primary fibroblasts; type: cell-based; details: for effect on cell viability (toxicity to cells): initial concentrations of 20 μM and 40 μM, FLIL33-overexpressing or NULL-transfected fibroblasts, 24 h
Text: as §1

[4] = vs CPP-DP10-treated and PBS-treated controls

Substance | collagen accumulation in lung [1] | total body weight over time [1] | pulmonary levels of IL-33 (ELISA, lung homogenates) [2] | total lung collagen (QuickZyme assay) [2] | signs of toxicity (ruffled fur, hunched posture, reduced mobility, diarrhea, weight lost, tachypnea) [2] | therapeutic effect against fibrosis [2] | total body weight over time [3] | pulmonary IL-33 accumulation [1] | collagen accumulation in lung [3, 4] | pulmonary IL-33 accumulation [3, 4] | depletion of IL-33 (IL-33) | effect on cell viability (toxicity to cells) (Primary fibroblasts) | concentrations at which the peptide remains toxic (as low as) (Primary fibroblasts; serial dilutions) | toxicity at concentrations lower than 2.5 μM (Primary fibroblasts; serial dilutions, lower concentrations)
GRKHKRHLVLAACQQQ [peptide 2-10] | not | closely followed the same trend | not | not | Neither of these two peptides caused any signs of toxicity | did not | not |  |  |  |  |  |  | 
QQKAKEVCPMYFMKLR [peptide 2-5] | significantly less collagen | quickly recovered their body weight | attenuated the levels of IL-33 | arrested deposition of collagen | Neither of these two peptides caused any signs of toxicity | encouraging therapeutic effect | regained their body weight in a time-dependent fashion | significantly less | significantly less collagen | significantly less | exceeding 60 % of the original levels |  |  | 
RQIKIWFQNRRMKWKKFMKLRSGLMIKKEA-NH2 [peptide 1-1] |  |  |  |  |  |  |  |  |  |  |  | highly toxic to cells | ≥ 2500 nM | becomes non-toxic
RQIKIWFQNRRMKWKKFRRETTKRPSLKTG-NH2 [peptide 1-2, ROIKIWFONRRMKWKKFRRETTKRPSLKTG] |  |  |  |  |  |  |  |  |  |  |  | no effect on cell viability |  | 
SGLMIKKEACYFRRET [2-7] | significantly less collagen | quickly recovered their body weight |  |  |  |  |  | significantly less |  |  |  |  |  | 

From US20250188141A1, “DECOY PEPTIDES FOR TREATING DISEASES OR CONDITIONS MODULATED BY INTERLEUKIN-33” (University of Maryland, Baltimore, priority 2022, published 2025)
